The text below walks through data of patent US20260176290A1, “INHIBITORS OF KRAS(G12D)” (Ranok Therapeutics (Hangzhou) Co. Ltd., priority 2022, published 2026).

The nature of data set [1]: Oral bioavailability in CD-1 mice. The following applies: male, CD-1, mouse, blood.
Procedure: (§3) CD-1 mice were randomly assigned to 6 groups with 3 male mice in each compound group. […] Compounds were orally administered (PO) in a single dose to each mouse in its group. Blood samples were taken within 72 hours. Bioavailability (F %) was determined and by liquid chromatography-mass spectrometry (LC-MS/MS).
Data set [2] relates to AGS gastric carcinoma cells [heterozygous G12D]. In words: Cancer cell line proliferation (CellTiter-Glo), AGS. The following applies: Homo sapiens, 72 hr, read-out: CTG(IC50), ABS-72 H(nM) AGS. The class given is cell-based. On the procedure:
(§1) The following cancer cell lines were employed: AGS gastric carcinoma [heterozygous G12D] (ATCC, CRL-1739); A-427 lung carcinoma [heterozygous G12D] (ATCC, HTB-53); ASPC1 pancreatic adenocarcinoma [homozygous G12D] (ATCC, CRL-1682) and SW1990 pancreatic adenocarcinoma [homozygous G12D] (ATCC CRL-2172). Cell lines were cultured essentially according to ATCC recommendations.
(§2) AGS, A-427, ASPC1, SW1990, and GP2D cells were plated in 96-well tissue culture plates at 4,000 cells/well and incubated at 37° C./5% CO2 for 72 hr in 100 μl of media. 3-fold serial dilutions of each test compound were prepared ranging from 20 μM to 1.02 nM. Each cell line was then treated with test compounds at various concentrations with a final concentration of 0.5% DMSO/well, and then incubated at 37° C./5% CO2 for 72 hr. 100 μl of CellTiter-Glo® Reagent (Promega Corporation, Madison, WI) was added to each well and processed according manufacturer's protocol. Results were analyzed and IC50 5 values were calculated in GraphPad 7 software.
For orientation: Cellular ATP, detected with luciferase, serves as a proxy for viable cell number.

The subject of data set [3] is A-427 lung carcinoma cells [heterozygous G12D]. In words: Cancer cell line proliferation (CellTiter-Glo), A-427. The class given is cell-based. The following applies: Homo sapiens, A427 cells, 72 hr, read-out: CTG(IC50), ABS-72 H(nM) A427. On the procedure: as §1, §2
In another data set the target is T1, KRAS (G12D)/SOS1 (Homo sapiens, UniProt P01116, G12D).
T1 construct: purchased Cisbio 63ADK000CB17PEH
T1 sequence (P01116 1-188 isoform P01116-2 G12D): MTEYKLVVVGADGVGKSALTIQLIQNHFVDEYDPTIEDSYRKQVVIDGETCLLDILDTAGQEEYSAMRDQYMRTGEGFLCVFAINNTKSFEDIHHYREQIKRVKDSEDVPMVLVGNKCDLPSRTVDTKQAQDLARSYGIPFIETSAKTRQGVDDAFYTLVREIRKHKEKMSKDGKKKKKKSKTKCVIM
Kind of data set: KRAS (G12D)/SOS1 homogeneous time-resolved fluorescence (HTRF) assay. Type of data set: binding. The settings on record: absence of GTP, 4° C. for 3 hr. The method, then:
3-fold serial dilutions of each test compound were prepared ranging from 20 μM to 1.02 nM. The test compound was mixed and incubated with reaction components, incubated in a sealed plate at 4° C. for 3 hr and fluorescence was measured using a PerkinElmer Envision plate reader. […]
(Time-resolved FRET reads energy transfer from a long-lived donor to a nearby acceptor.)

Data set [4] has as its system ASPC1 pancreatic adenocarcinoma cells [homozygous G12D]. In words: Cancer cell line proliferation (CellTiter-Glo), ASPC1. The class given is cell-based. The settings on record: Homo sapiens, ASPC-1 cells, 72 hr, read-out: CTG(IC50), ABS-72 H(nM) ASPC-1. On the procedure: as §1, §2
The test system of data set [5] is SW1990 pancreatic adenocarcinoma cells [homozygous G12D]. In words: Cancer cell line proliferation (CellTiter-Glo), SW1990. The class given is cell-based. The following applies: Homo sapiens, 72 hr, read-out: CTG(IC50), ABS-72 H(nM) SW1990. On the procedure: as §1, §2
The next data set is described as follows: in vivo. The settings on record: male, CD-1, mouse, po.

Structures are written as SMILES. pIC50: −log10 of the molar value.

Procedure for in vivo: as §3

Broadly, the bioavailability is the share of a dose that reaches the circulation, judged against a reference dose that is usually intravenous. Read a high bioavailability as much systemic uptake. A word on the IC50: it is the concentration that gives 50% inhibition. The term pIC50 denotes the negative decadic logarithm of the IC50, by convention in mol/L. Lower therefore signals a high IC50. `C#Cc1c(F)ccc2cc(O)cc(-c3ncc4c(N5CC6CCC(C5)N6)nc(OCC5(CN6CC7CC7C6)CC5)nc4c3F)c12` (stereo not drawn) [Example 13] showed a bioavailability in data set [1] of 1.98%. The IC50 in data set [2], in data set [3], in data set [4] and in data set [5] was less than 100 nM each time. Also, the pIC50 against KRAS (G12D)/SOS1 was greater than 7.00.

In data set [1], `C#Cc1c(F)ccc2cc(O)cc(-c3ncc4c(N5CC6CCC(C5)N6)nc(OCC5(CN6CCC(C(F)(F)F)CC6)CC5)nc4c3F)c12` [Example 14] came in with a bioavailability of 5.81%. Further, the IC50 in data set [2], in data set [3], in data set [4] and in data set [5] was less than 100 nM each time. This compound had a pIC50 at KRAS (G12D)/SOS1 greater than 7.00.

In turn, `C#Cc1c(F)ccc2cc(O)cc(-c3nc(OC)c4c(N5CC6CCC(C5)N6)nc(OCC5(CN6CCC(F)CC6)CC5)nc4c3F)c12` [Example 19] returned a bioavailability in data set [1] of 9.39%. Besides, the IC50 in data set [2], in data set [3], in data set [4] and in data set [5] was less than 100 nM throughout. On KRAS (G12D)/SOS1, this compound had a pIC50 greater than 7.00.

`C#Cc1c(F)ccc2cc(O)cc(-c3ncc4c(N5CC6CCC(C5)N6)nc(OCC5(CN6CC7C(C6)C7C(F)(F)F)CC5)nc4c3F)c12` (stereo not drawn) [Example 37] yielded a bioavailability in data set [1] of 10.6%. The IC50 in data set [2] was less than 100 nM; in data set [3] it was 100 to 1000 nM; in data set [4], less than 100 nM; in data set [5] it was less than 100 nM. The compound further showed a pIC50 at KRAS (G12D)/SOS1 greater than 7.00.

`C#Cc1c(F)ccc2cc(O)cc(-c3nc(OC)c4c(N5CC6CCC(C5)N6)nc(OCC5(CN6CCC7CC76)CC5)nc4c3F)c12` (stereo not drawn) [Example 43]: the bioavailability in data set [1] was 2.37%. For the same compound, the IC50 in data set [2] is less than 100 nM; in data set [3] it was 100 to 1000 nM; in data set [4] it was less than 100 nM; in data set [5], less than 100 nM. Moreover, at KRAS (G12D)/SOS1, the pIC50 is greater than 7.00.

With `C#Cc1c(F)ccc2cc(O)cc(-c3ncc4c(N5CC6CCC(C5)N6)nc(OCC5(CN6CC7C(C#N)C7C6)CC5)nc4c3F)c12` (stereo not drawn) [Example 44], the bioavailability in data set [1] is 2.38%. Also, the half-maximal inhibitory concentration (IC50) in data set [2] is less than 100 nM; in data set [3] it was 100 to 1000 nM; in data set [4], less than 100 nM; in data set [5], less than 100 nM. On KRAS (G12D)/SOS1, this compound gave a pIC50 greater than 7.00.

The compound `C#Cc1cccc2cc(O)cc(-c3ncc4c(N5CC6CCC(C5)N6)nc(OCC5(CN6CC7C(C6)C7(F)F)CC5)nc4c3F)c12` (stereo not drawn) [Example 100] came in with a bioavailability in “in vivo” of 1.7%.

`C#Cc1c(F)ccc2cc(O)cc(-c3nc(OC)c4c(N5CC6CCC(C5)N6C(=O)OC(C)OC(C)=O)nc(OCC5(CN6CC7CC7C6)CC5)nc4c3F)c12` (stereo not drawn) [Example 146]: in the data set “in vivo”, the bioavailability was 8.3%.

`C#Cc1c(F)ccc2cc(O)cc(-c3nc(OC)c4c(N5CC6CCC(C5)N6C(=O)OCOC(=O)C(C)C)nc(OCC5(CN6CC7CC7C6)CC5)nc4c3F)c12` (stereo not drawn) [Example 148]: the bioavailability in the data set “in vivo” worked out at 6.8%.

As for `C#Cc1c(F)ccc2cc(O)cc(-c3ncc4c(N5CC6CCC(C5)N6)nc(OCC5(CN6CC7C(F)C7C6)CC5)nc4c3F)c12` (stereo not drawn) [Example 149], the bioavailability in the data set “in vivo” amounted to 12.9%.

On to `C#Cc1c(F)ccc2cc(O)cc(-c3nc(OC)c4c(N5CC6CCC(C5)N6)nc(OCC5(CN6CC7C(F)C7C6)CC5)nc4c3F)c12` (stereo not drawn) [Example 155], for which the bioavailability in “in vivo” is 8.03%.

In the data set “in vivo”, `COc1nc(-c2cc(N)cc(Cl)c2C(F)(F)F)c(F)c2nc(OCC3(CN4CC5CC5C4)CC3)nc(N3CC4CCC(C3)N4)c12` (stereo not drawn) [Example 165] displayed a bioavailability of 13.8%.

The compound `[2H]C([2H])([2H])Oc1nc(-c2cc(O)cc3ccc(F)c(C#C)c23)c(F)c2nc(OCC3(CN4CC5C(F)C5C4)CC3)nc(N3CC4CCC(C3)N4)c12` (stereo not drawn) [Example 167] registered a bioavailability in “in vivo” of 7.14%.

As for `C#Cc1c(F)ccc2c(F)c(O)cc(-c3nc(OC)c4c(N5CC6CCC(C5)N6)nc(OCC5(CN6CC7CC7C6)CC5)nc4c3F)c12` (stereo not drawn) [Example 168], in the data set “in vivo”, the bioavailability turned out to be 13.6%.

`C#Cc1c(F)ccc2cc(N)cc(-c3nc(OC)c4c(N5CC6CCC(C5)N6)nc(OCC5(CN6CC7CC7C6)CC5)nc4c3F)c12` (stereo not drawn) [Example 184]: the bioavailability in “in vivo” is 5.75%.
